Assay [1] deals with T1, IDO1 (Homo sapiens (Human), UniProt P14902). Briefly: IDO1 Cellular Assay in Hela Cells Stimulated with IFNγ. The format is cell-based. The conditions noted are these: Hela cells stimulated with IFNγ 100 ng/mL; read-out: IDO1 HELA Cell Assay, IC50.
Assay [2] concerns the target T1, IDO1. Briefly: IDO1 Cellular Assay in Frozen HEK293 Cells Transiently Transfected with Human IDO1. The format is cell-based. The conditions noted are these: read-out: IDO1 HEK293 Cell Assay, IC50.
For assay [3], the target named is T1, IDO1. The experiment in a line: IDO1 Enzyme Assay. Particulars: HIS-tagged recombinant IDO1, 40 nM.
Setting [4] is: HEK293 cells transiently transfected with human IDO1.
Where [5] appears, read: read-out: IDO1 Enzyme Assay, IC50.

Molecules are shown by their SMILES.

T1 sequence (P14902 whole entry): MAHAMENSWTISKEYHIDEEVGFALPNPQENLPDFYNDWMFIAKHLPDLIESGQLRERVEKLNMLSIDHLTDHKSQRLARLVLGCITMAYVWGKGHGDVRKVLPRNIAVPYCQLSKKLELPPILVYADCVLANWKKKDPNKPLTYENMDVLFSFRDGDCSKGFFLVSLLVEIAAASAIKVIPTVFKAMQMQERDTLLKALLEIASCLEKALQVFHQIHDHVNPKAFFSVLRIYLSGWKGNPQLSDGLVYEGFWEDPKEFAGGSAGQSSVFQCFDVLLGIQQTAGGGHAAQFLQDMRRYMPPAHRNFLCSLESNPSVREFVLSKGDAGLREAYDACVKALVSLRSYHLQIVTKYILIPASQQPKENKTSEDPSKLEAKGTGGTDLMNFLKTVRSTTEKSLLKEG

As to `NS(=O)(=O)N1CCC(Sc2nonc2/C(=N/O)Nc2ccc(F)c(Br)c2)CC1` [Example 76, N-(3-bromo-4-fluorophenyl)-N′-hydroxy-4-[(1-sulfamoylpiperidin-4-yl)sulfanyl]-1,2,5-oxadiazole-3-carboximidamide], the IC50 on IDO1 [1] is 43.8 nM; on IDO1 [2] (setting [4]) it was 114 nM; on IDO1 [3] (setting [5]), 97.2 nM.

Turning to `NC(=O)CSc1nonc1/C(=N/O)Nc1ccc(F)c(Br)c1` [Example 77, 2-({4-[N-(3-bromo-4-fluorophenyl)-N′-hydroxycarbamimidoyl]-1,2,5-oxadiazol-3-yl}sulfanyl)acetamide], the half-maximal inhibitory concentration (IC50) was 43.5 nM at IDO1 [1], 36.4 nM on IDO1 [2] (setting [4]) and 51.8 nM on IDO1 [3] (setting [5]).

For `CN1CCOC(CSc2nonc2/C(=N/O)Nc2ccc(F)c(Br)c2)C1` (stereo not drawn) [Example 78, N-(3-bromo-4-fluorophenyl)-N′-hydroxy-4-{[(4-methylmorpholin-2-yl)methyl]sulfanyl}-1,2,5-oxadiazole-3-carboximidamide], the results for the IC50 on IDO1 [1], at IDO1 [2] (setting [4]) and at IDO1 [3] (setting [5]) were 57.7 nM, 101 nM and 90.9 nM, respectively.

As for `O=C(NCCSc1nonc1/C(=N/O)Nc1ccc(F)c(Br)c1)C(F)(F)F` [Example 79, N-[2-({4-[N-(3-bromo-4-fluorophenyl)-N′-hydroxycarbamimidoyl]-1,2,5-oxadiazol-3-yl}sulfanyl)ethyl]-2,2,2-trifluoroacetamide], the IC50 on IDO1 [1] was found to be 24.1 nM; at IDO1 [2] (setting [4]), 27.5 nM; at IDO1 [3] (setting [5]) it was 61.6 nM.

In the case of `N#CC12CC(CSc3nonc3/C(=N/O)Nc3ccc(F)c(Br)c3)(C1)C2` [Example 80, N-(3-bromo-4-fluorophenyl)-4-{[(3-cyanobicyclo[1.1.1]pent-1-yl)methyl]sulfanyl}-N′-hydroxy-1,2,5-oxadiazole-3-carboximidamide], the 50% inhibitory concentration (IC50) at IDO1 [1] was found to be 37.9 nM; at IDO1 [2] (setting [4]), 78.1 nM; at IDO1 [3] (setting [5]) it was 125 nM.

Take `CNC(=O)N1CC(Sc2nonc2/C(=N/O)Nc2ccc(F)c(Br)c2)C1` [Example 81, 3-({4-[N-(3-bromo-4-fluorophenyl)-N′-hydroxycarbamimidoyl]-1,2,5-oxadiazol-3-yl}sulfanyl)-N-methylazetidine-1-carboxamide]: the half-inhibitory concentration (IC50) was 42.9 nM on IDO1 [1], 36.9 nM on IDO1 [2] (setting [4]) and 41.8 nM at IDO1 [3] (setting [5]).

For `O=S1(=O)CCC(Sc2nonc2/C(=N/O)Nc2ccc(F)c(Br)c2)CC1` [Example 82, N-(3-bromo-4-fluorophenyl)-4-[(1,1-dioxidotetrahydro-2H-thiopyran-4-yl)sulfanyl]-N′-hydroxy-1,2,5-oxadiazole-3-carboximidamide], the half-inhibitory concentration (IC50) was determined as 40.6 nM at IDO1 [1], 78.1 nM at IDO1 [2] (setting [4]) and 102 nM on IDO1 [3] (setting [5]).

Consider `O=C1CC[C@H](CSc2nonc2/C(=N/O)Nc2ccc(F)c(Br)c2)N1` [Example 83, N-(3-bromo-4-fluorophenyl)-N′-hydroxy-4-({[(2R)-5-oxopyrrolidin-2-yl]methyl}sulfanyl)-1,2,5-oxadiazole-3-carboximidamide], for which the 50% inhibitory concentration (IC50) on IDO1 [1] worked out at 75.9 nM; on IDO1 [2] (setting [4]), 11.5 nM; at IDO1 [3] (setting [5]) it was 22.8 nM.

As for `N#C/N=C(\N)NCCSc1nonc1/C(=N/O)Nc1ccc(F)c(Br)c1` [Example 85, N-(3-bromo-4-fluorophenyl)-4-{[2-(N″- cyanocarbamimidamido)ethyl]sulfanyl}-N′-hydroxy-1,2,5-oxadiazole-3-carboximidamide], the IC50 at IDO1 [1] is 16.9 nM; at IDO1 [2] (setting [4]) it was 35.7 nM; on IDO1 [3] (setting [5]), 39.3 nM.

As to `CC(=O)N1CCC(Sc2nonc2/C(=N/O)Nc2ccc(F)c(Br)c2)CC1` [Example 87, 4-[(1-acetylpiperidin-4-yl)sulfanyl]-N-(3-bromo-4-fluorophenyl)-N′-hydroxy-1,2,5-oxadiazole-3-carboximidamide], the IC50 at IDO1 [1] came out at 70 nM; on IDO1 [2] (setting [4]), 133 nM; on IDO1 [3] (setting [5]) it was 99.7 nM.

As to `O=c1c(NCCSc2nonc2/C(=N/O)Nc2ccc(F)c(Br)c2)c(N2CCOCC2)c1=O` [Example 91, N-(3-bromo-4-fluorophenyl)-N′-hydroxy-4-({2-[(2-morpholin-4-yl-3,4-dioxocyclobut-1-en-1-yl)amino]ethyl}sulfanyl)-1,2,5-oxadiazole-3-carboximidamide], the half-inhibitory concentration (IC50) at IDO1 [1] was 357 nM; on IDO1 [2] (setting [4]) it was 367 nM; on IDO1 [3] (setting [5]) it was 57.4 nM.

`O=c1[nH]nc(CSc2nonc2/C(=N/O)Nc2ccc(F)c(Br)c2)cc1C(F)(F)F` [Example 92, N-(3-bromo-4-fluorophenyl)-N′-hydroxy-4-({[6-oxo-5-(trifluoromethyl)-1,6-dihydropyridazin-3-yl]methyl}sulfanyl)-1,2,5-oxadiazole-3-carboximidamide]: the concentration for half-maximal inhibition (IC50) on IDO1 [1] was 145 nM; at IDO1 [2] (setting [4]) it was 364 nM; at IDO1 [3] (setting [5]) it was 99.5 nM.

Take `O=c1c(NCCSc2nonc2/C(=N/O)Nc2ccc(F)c(Br)c2)c(N2CCCCC2)c1=O` [Example 93, N-(3-bromo-4-fluorophenyl)-4-({2-[(3,4-dioxo-2-piperidin-1-ylcyclobut-1-en-1-yl)amino]ethyl}sulfanyl)-N′-hydroxy-1,2,5-oxadiazole-3-carboximidamide]: the IC50 at IDO1 [1] stood at 249 nM; at IDO1 [2] (setting [4]), 404 nM; at IDO1 [3] (setting [5]), 39 nM.

Consider `CC(C)Nc1c(NCCSc2nonc2/C(=N/O)Nc2ccc(F)c(Br)c2)c(=O)c1=O` [Example 94, N-(3-bromo-4-fluorophenyl)-N′-hydroxy-4-{[2-({2-[(1-methylethyl)amino]-3,4-dioxocyclobut-1-en-1-yl}amino)ethyl]sulfanyl}-1,2,5-oxadiazole-3-carboximidamide], for which the values for the IC50 on IDO1 [1], at IDO1 [2] (setting [4]) and on IDO1 [3] (setting [5]) were 73 nM, 193 nM and 26.8 nM, respectively.

In the case of `NC(=O)CCSc1nonc1/C(=N/O)Nc1ccc(F)c(Br)c1` [Example 96, 3-({4-[N-(3-bromo-4-fluorophenyl)-N′-hydroxycarbamimidoyl]-1,2,5-oxadiazol-3-yl}sulfanyl)propanamide], the IC50 at IDO1 [1] turned out to be 24.7 nM; at IDO1 [2] (setting [4]), 32.9 nM; at IDO1 [3] (setting [5]), 36.9 nM.

In the case of `CC(C)OC(=O)[C@H](C)NP(=O)(CCSc1nonc1/C(=N/O)Nc1ccc(F)c(Br)c1)N[C@@H](C)C(=O)OC(C)C` [Example 97, 1-methylethyl (2S,6S)-4-[2-({4-[N-(3-bromo-4-fluorophenyl)-N′-hydroxycarbamimidoyl]-1,2,5-oxadiazol-3-yl}sulfanyl)ethyl]-2,6,9-trimethyl-7-oxo-8-oxa-3,5-diaza-4-phosphadecan-1-oate 4-oxide], the IC50 on IDO1 [1] is 380 nM; at IDO1 [2] (setting [4]), 745 nM; on IDO1 [3] (setting [5]), 132 nM.

With `N/C(=C\[N+](=O)[O-])NCCSc1nonc1C(=NO)Nc1ccc(F)c(Br)c1` [Example 99, 4-[(2-{[(E)-1-amino-2-nitroethenyl]amino}ethyl)sulfanyl]-N-(3-bromo-4-fluorophenyl)-N′-hydroxy-1,2,5-oxadiazole-3-carboximidamide], the figures for the IC50 on IDO1 [1], at IDO1 [2] (setting [4]) and on IDO1 [3] (setting [5]) were 195 nM, 231 nM and 84 nM, respectively.

For the compound `COCCNP(=O)(CCSc1nonc1/C(=N/O)Nc1ccc(F)c(Br)c1)NCCOC` [Example 100, 4-[(2-{bis[(2-methoxyethyl)amino]phosphoryl}ethyl)sulfanyl]-N-(3-bromo-4-fluorophenyl)-N′-hydroxy-1,2,5-oxadiaxole-3-carboximidamide], the values for the IC50 at IDO1 [1], at IDO1 [2] (setting [4]) and at IDO1 [3] (setting [5]) were 342 nM, 582 nM and 98.8 nM, respectively.

With `CNP(=O)(CCSc1nonc1/C(=N/O)Nc1ccc(F)c(Br)c1)NC` [Example 103, 4-({2-[bis(methylamino)phosphoryl]ethyl}sulfanyl)-N-(3-bromo-4-fluorophenyl)-N′-hydroxy-1,2,5-oxadiazole-3-carboximidamide], the half-inhibitory concentration (IC50) was determined as 32.3 nM on IDO1 [1], 84.5 nM on IDO1 [2] and 48.5 nM at IDO1 [3] (setting [5]).

Turning to `CNC(=O)N1CCC(Sc2nonc2/C(=N/O)Nc2ccc(F)c(Br)c2)CC1` [Example 104, 4-({4-[N-(3-bromo-4-fluorophenyl)-N′-hydroxycarbamimidoyl]-1,2,5-oxadiazol-3-yl}sulfanyl)-N-methylpiperidine-1-carboxamide], the figures for the IC50 at IDO1 [1], at IDO1 [2] (setting [4]) and at IDO1 [3] (setting [5]) were 353 nM, 269 nM and 169 nM, respectively.

Consider `COCCNC(=O)CCSc1nonc1/C(=N/O)Nc1ccc(F)c(Br)c1` [Example 106, 3-({4-[N-(3-bromo-4-fluorophenyl)-N′-hydroxycarbamimidoyl]-1,2,5-oxadiazol-3-yl}sulfanyl)-N-(2-methoxyethyl)propanamide], for which the IC50 on IDO1 [1] stood at 558 nM; on IDO1 [2] (setting [4]), 78.7 nM; at IDO1 [3] (setting [5]) it was 30 nM.

`O=C(CCSc1nonc1/C(=N/O)Nc1ccc(F)c(Br)c1)NCCO` [Example 107, 3-({4-[N-(3-bromo-4-fluorophenyl)-N′-hydroxycarbamimidoyl]-1,2,5-oxadiazol-3-yl}sulfanyl)-N-(2-hydroxyethyl)propanamide]: the IC50 on IDO1 [1] came out at 48.3 nM; at IDO1 [2] (setting [4]), 43.1 nM; at IDO1 [3] (setting [5]), 30.1 nM.

Take `CCNC(=O)CSc1nonc1C(=NO)Nc1ccc(F)c(Br)c1` [Example 110, 2-({4-[N-(3-bromo-4-fluorophenyl)-N′-hydroxycarbamimidoyl]-1,2,5-oxadiazol-3-yl}sulfanyl)-N-ethylacetamide]: the half-inhibitory concentration (IC50) on IDO1 [1] was 54.3 nM; at IDO1 [2] (setting [4]) it was 25.6 nM; at IDO1 [3] (IDO1 Enzyme Assay, IC50, nM), 48.5 nM.

Turning to `CN(C)C(=O)CSc1nonc1C(=NO)Nc1ccc(F)c(Br)c1` [Example 111, 2-({4-[N-(3-bromo-4-fluorophenyl)-N′-hydroxycarbamimidoyl]-1,2,5-oxadiazol-3-yl}sulfanyl)-N,N-dimethylacetamide], the 50% inhibitory concentration (IC50) was determined as 685 nM on IDO1 [1]; 446 nM at IDO1 [2] (setting [4]); 59.6 nM on IDO1 [3] (IDO1 Enzyme Assay, IC50, nM).

Usually IC50 stands for the concentration at which inhibition is half-maximal.
